# Counter-ions that a name gives are not always drawn. Like-named read-outs stand apart in the source and are kept apart here. Non-standard residues stand in square brackets, D forms with d. Residues, ends and D or L forms follow the SMILES beside them. *: point of attachment. Dolaproine = CO[C@@H]([C@@H]1CCCN1)[C@@H](C)C(=O)O; Dil = CC[C@H](C)[C@H](NC)[C@@H](CC(=O)O)OC; X1 = C[C@@H](N*)[C@@H](O)c1ccccc1; NMeV = CN[C@H](C(=O)O)C(C)C
# How the values were obtained:
# Jeko-1 [1] = assay: CTG assay (CellTiter-Glo cell viability), Jeko-1, payload compounds; assay type: cell-based; settings: 72 h, CellTiter-Glo, read-out: JeKo-1 IC50
# Description: (§1) The CTG assay is a method of determining the number of viable cells in culture based on quantitation of the ATP present, an indicator of metabolically active cells. The cell assay requires the addition of a single reagent, Cell Titer Glo, in which cells are lysed and generation of a luminescent signal is produced. The luminescent signal is proportional to the amount of ATP present. The amount of ATP is directly proportional to the number of cells present in culture. For our assay, cells were ensured to be in log-phase for either Jeko-1 or MDA-MB-468. Cells were transferred to 96 wells and treated with compounds in three-fold serial dilution starting from 1 μM to 0.0000508 μM (10 points dilution), for 72 h. Cell viability was analyzed with CellTiter-Glo® Luminescent Cell Viability Assay (Promega) following manufactures' instruction. Percentage of viable cells in each compound concentration was determined by normalizing with the luminescence of vehicle control and plotted into percentage of viability versus dose response curve by nonlinear fit in GraphPad Prism software.
# MDA-MB-468 = assay: CTG assay (CellTiter-Glo cell viability), MDA-MB-468, payload compounds; assay type: cell-based; settings: 72 h, CellTiter-Glo, read-out: MDA-MB-468 IC50
# Description: as §1
# [2] = Human hepatocyte clearance (HHEP CL); assay type: in vitro ADME; design: CLint scaled / half-life: dose or concentration left out as unconfirmed; settings: both sexes, human, hepatocytes
# Protocol: (§2) Suspensions of human hepatocytes (from 10 mixed gender human donors, final concentration 0.5×10^6 cell/mL) in Williams' E medium were incubated for 90 min with a test compound (0.90% acetonitrile and 0.10% DMSO, final concentration […]) and positive controls (7-Ethoxycoumarin, 7-Hydroxycoumarin, 0.90% acetonitrile and 0.10% DMSO, final concentration […]), with constant shaking at about 600 rpm at 37° C. in an incubator at 5% CO2 and 95% humidity. The total volume of incubation was 200 μl. A sample ([…]) was taken out at TO, 15, 30, 60 and 90 min, which was added intermediately to the ice-cold stop solution (acetonitrile with 200 ng/mL of tobutamide and labetalol as internal standard) (125 μl), and vortexed at 500 rpm for 10 min, centrifuged at 3220×g for 20 min at 4° C. Analytical plates are sealed and stored at 4° C. until LCMS analysis. Viability of hepatocytes at pre-incubation was determined to be 84.5%.
# (§3) Human liver microsome clearance assay assess metabolism by the cytochrome P450 system (phase I enzymes). These enzymes oxidize substrates by incorporating oxygen atoms into hydrocarbons, thus causing the introduction of hydroxyl groups, or N- O- and S-dealkylation of substrates and forming more polar products easier to be cleared. Human hepatocyte clearance assay measures more broadly the overall cellular metabolism of the test compound (phase I and phase II enzyme pathways). Phase II enzymes catalyze the conjugation reaction of xenobiotic metabolites and charged species, such as glutathione, sulfate, glycine, or glucuronic acid to form even more polar compounds for easier clearance.
# [3] = Human liver microsome clearance (HLM CL); assay type: in vitro ADME; settings: human, microsomes
# Protocol: (§4) Working solution was prepared by adding 5 μL of compound and control stock solution (10 mM in dimethyl sulfoxide, DMSO) to 495 μL of acetonitrile (ACN) (intermediate solution concentration: 100 μM, 99% CAN and 1% DMSO. The appropriate concentrations of microsome working solutions were prepared in 100 mM potassium phosphate buffer. After reaction plates containing mixtures of compound and microsomes were pre-incubated at 37° C. for 10 min, […] of 2 mM of NADPH and 2 mM of MgCl2 solution was added to start the reaction. The final concentrations of incubation medium were as follows: microsome—0.5 mg protein/mL, test compound/control […], NADPH—1 mM, MgCl2 —1 mM, acetonitrile 0.99%, DMSO 0.01%. Incubations were performed at 37° C. for 60 min. Samples were taken out at TO, T5, T15, T30, T45 and T60, which was added intermediately to the ice-cold stop solution (acetonitrile with 200 ng/mL of tobutamide and labetalol as internal standard) (125 μl), shaken for 10 min, centrifuged at 4000 rpm for 20 min at 4° C. Analytical plates were analyzed by LCMS.
# as §3
# [4] = PAMPA (Parallel Artificial Membrane Permeability Assay); assay type: physicochemical
# Description: PAMPA is a method which determines the permeability of substances from a donor compartment, through a lipid-infused artificial membrane into an acceptor compartment. See Ottaviani, G.; Martel, S.; Carrupt, P-A. “Parallel Artificial Membrane Permeability Assay: A New Membrane for the Fast Prediction of Passive Human Skin Permeability”, Journal of Medicinal Chemistry, 2006, 49 (13), 3948-3954). A multi-well microtitre plate is used for the donor and a membrane/acceptor compartment is placed on top; the whole assembly is commonly referred to as a “sandwich”. At the beginning of the test, the drug is added to the donor compartment, and the acceptor compartment is drug-free. After an incubation period which may include stirring, the sandwich is separated, and the amount of drug is measured in each compartment. Mass balance allows calculation of drug that remains in the membrane.
# The PAMPA was performed by Pion Inc using the GIT-0 lipid and 5 μM donor solution in pH 5.0 and pH 7.4 PRISMA buffer (containing 0.05% DMSO). The higher PAMPA data has been associated with better bystander killing. (Ogitani Y.; Hagihara K.; Oitate, M.; Naito, H.; Agatsuma T. “Bystander killing effect of DS-8201a, a novel anti-human epidermal growth factor receptor 2 antibody-drug conjugate, in tumors with human epidermal growth factor receptor 2 heterogeneity” Cancer Science, 2016, 107 (7), 1039-1046).
# Jeko-1 [5] = assay: CTG assay of ROR-1 ADCs and toxins, JeKo-1; assay type: cell-based
# Protocol: FIG. 33 illustrates a CTG assay wherein ROR+ (JeKo-1) cells were incubated with the ADCs generated as described in FIG. 32 in serial three-fold dilutions and cell viability was assessed after 72 hours.
# as §1
# Novel ROR-1 antibody-drug conjugates (ADCs) were evaluated by CTG Assay in a similar manner as was described in Example 24 for screening of payloads. […] Briefly ROR+(JeKo-1/MDA-MB-468) or ROR− (Ramos) cells were transferred to 96 wells and treated with the ADCs in three-fold serial dilution starting from […] (10 points dilution), for 72 h. Cell viability was analyzed with CellTiter-Glo® Luminescent Cell Viability Assay (Promega) following the manufactures' instructions (FIG. 33). The percentage of viable cells at each ADC concentration was determined by normalizing with the luminescence of vehicle control and plotted into percentage of viability versus dose response curve by nonlinear fit in GraphPad Prism software.
# [6] = AC-SINS self-interaction assay; assay type: physicochemical; settings: FIG. 30
# Protocol: Antibody developability was assessed by performing an AC-SINS assay and evaluating the potential for self-interaction.
# An initial assessment of antibody developability was performed by AC-SINS to evaluate the potential for self-interaction (FIG. 30).
# human hepatocytes = assay: Human hepatocyte clearance (HHEP CL); assay type: in vitro ADME; design: CLint scaled / half-life: dose or concentration left out as unconfirmed; settings: human hepatocytes, 90 min incubation
# Protocol: as §2, §3
# human liver microsome = assay: Human liver microsome clearance (HLM CL); assay type: in vitro ADME; settings: human liver microsomes 0.5 mg protein/mL, NADPH, 60 min
# Protocol: as §4, §3
# [7] = Homo sapiens, Jeko-1, average of run 1 and run 2, read-out: Avg. IC50
# [8] = Homo sapiens, Jeko-1 P3, run 1, 72 h, read-out: Jeko-1 P3 (RUN1) IC50
# [9] = Homo sapiens, Jeko-1 P4, run 2, 72 h, read-out: Jeko-1 P4 (RUN2) IC50
# [10] = Jeko-1, average of run 1 and run 2, read-out: Avg. IC50
# [11] = Jeko-1 P3, run 1, 72 h, read-out: Jeko-1 P3 (RUN1) IC50
Compound,"IC50 (Jeko-1 [1]; Homo sapiens, JeKo-1) [nM]","IC50 (MDA-MB-468; Homo sapiens, MDA-MB-468) [nM]",CLint scaled [2] [mL/min/kg],half-life [2] [h],CLint scaled [3] [mL/min/kg],half-life [3] [h],Papp at 5 μM ([4]; pH 5) [×10⁻⁶ cm/s],Papp at 5 μM ([4]; pH 7.4) [×10⁻⁶ cm/s],also measured
"CC[C@@]1(O)C(=O)OCc2c1cc1n(c2=O)Cc2c-1nc1cc(F)c(C)c3c1c2[C@@H](OCCO)CC3 (single isomer, unassigned) [Compound 5-48]",0.68,8.3,75.5,0.852,17.4,1.2,69,9,IC50 (Jeko-1 [5]; [7]): 0.5 nM; IC50 (Jeko-1 [5]; [8]): 0.5 nM; IC50 (Jeko-1 [5]; [9]): 0.5 nM
"CC[C@@]1(O)C(=O)OCc2c1cc1n(c2=O)Cc2c-1nc1cc(F)c(C)c3c1c2[C@@](C)(NC(=O)CO)CC3 [Compound 9-74, N-((1S,9S)-9-ethyl-5-fluoro-9-hydroxy-1,4-dimethyl-10,13-dioxo-1,2,3,9,10,12,13,15-octahydrobenzo[de]pyrano[3′,4′:6,7]indolizino[1,2-b]quinolin-1-yl)-2-hydroxyacetamide]",4.1,57.7,57.5,1.12,22.7,0.915,36.1,4.4,IC50 (Jeko-1 [5]; [7]): 3.1 nM; IC50 (Jeko-1 [5]; [8]): 2.4 nM; IC50 (Jeko-1 [5]; [9]): 3.7 nM
"CC[C@H](C)[C@@H]([C@@H](CC(=O)N1CCC[C@H]1[C@H](OC)[C@@H](C)C(=O)N[C@H](C)[C@@H](O)c1ccccc1)OC)N(C)C(=O)[C@@H](NC(=O)[C@@H](NC)C(C)C)C(C)C [MMAE, reference compound] (H-[NMeV]V[Dil][Dolaproine]-X1)",–,–,–,–,–,–,–,–,"IC50 (Jeko-1 [5]; [10]): 0.2 nM; IC50 (Jeko-1 [5]; [11]): 0.2 nM; IC50 (Jeko-1 [5]; Jeko-1 P4, run 2, 72 h, read-out: Jeko-1 P4 (RUN2) IC50): 0.2 nM"
Adalimumab,–,–,–,–,–,–,–,–,AC-SINS shift (self-interaction) [6]: low shift
"CC[C@@]1(O)C(=O)OCc2c1cc1n(c2=O)Cc2c-1nc1cc(F)c(C)c3c1c2[C@](C)(N)CC3 (single isomer, unassigned) [Compound 8-72, hydrochloride]",1.5,7.7,79.1,0.817,35.9,0.583,80.8,8.4,–
"CC[C@@]1(O)C(=O)OCc2c1cc1n(c2=O)Cc2c-1nc1cc(F)c(C)c3c1c2[C@](C)(OCCO)CC3 (single isomer, unassigned) [Compound 14-92]",1.2,14.2,51.3,1.25,19.2,1.08,69.1,4.5,–
"CC[C@@]1(O)C(=O)OCc2c1cc1n(c2=O)Cc2c-1nc1cc(F)c(C)c3c1c2[C@H](OCCO)CC3 (single isomer, unassigned) [Compound 5-47]",1.5,6.3,53.7,1.2,17.3,1.2,–,11.6,"PAMPA Pe (10^−6 cm/s) pH 5.0 ([4]; 5 μM, pH 5): 76/.1 10^−6 cm/s"
"CC[C@@]1(O)C(=O)OCc2c1cc1n(c2=O)Cc2c-1nc1cc(F)c(C)c3c1c2[C@@H](NC(=O)CO)CC3 [Dxd, reference compound]",–,–,–,–,–,–,–,–,IC50 (Jeko-1 [1]): 1.42 nM; IC50 (MDA-MB-468): 11.6 nM; HHEP (T1/2) (human hepatocytes): (79.0) min; HHEP Cl (human hepatocytes intrinsic clearance) (human hepatocytes): 48.7 mL/min/kg; HLM (T1/2) (human liver microsome): (>145); HLM Cl (human liver microsome clearance) (human liver microsome): 8.6 mL/min/kg; IC50 (Jeko-1 [5]; [10]): 0.9 nM; IC50 (Jeko-1 [5]; [11]): 0.9 nM

# From patent US12280121B2, “Immunoconjugates and methods” (Immunome, Inc., priority 2021, dated 2025)
